# Reference: paper PMC7920280, “The Multi-Targeting Ligand ST-2223 with Histamine H3 Receptor and Dopamine D2/D3 Receptor Antagonist Properties Mitigates Autism-Like Repetitive Behaviors and Brain Oxidative Stress in Mice” (International Journal of Molecular Sciences, 2021)
# Assays:
# [1] = test system: superoxide dismutase (SOD); experiment: Superoxide dismutase (SOD) activity in brain parts of treated BTBR mice; type: in vivo; conditions: i.p., ST-2223 5 mg/kg, RAM 10 mg/kg, ARP 1 mg/kg, MEM 5 mg/kg, mean ± SEM; for SOD, Prefrontal Cortex: n = 3-6, BTBR vehicle 45.1 ± 2.8; for SOD, Hippocampus: n = 3-6, BTBR vehicle 49.5 ± 0.5; for SOD, Cerebellum: n = 3-6, BTBR vehicle 49.7 ± 1.3; for SOD, Striatum: n = 3-6, BTBR vehicle 51.8 ± 1.2
# Experimental: (§1) At the end of the behavioral assessments, the animals were sacrificed following previously published protocols. Animals were anesthetized with pentobarbital (40 mg/kg, body weight, i.p.), sacrificed, and perfused via intracardial infusion to wash out the blood, using 1× PBS (0.01 M phosphate buffer, 0.0027 M potassium chloride and 0.137 M sodium chloride) at pH 7.4. […] The brains were then quickly removed and placed on an ice plate. The cerebellum, hippocampus, prefrontal and striatum were excised from the brain and snap-frozen in liquid nitrogen for further use in biochemical assessments. On the day of the biochemical tests, the tissues were homogenized using radioimmunoprecipitation assay (RIPA) buffer (50 mM Tris HCl, pH 7.4, 140 mM NaCl, 1 mM EDTA, 0.5% Triton X-100 and 0.5% sodium deoxycholate) supplemented with protease and phosphatase inhibitors. Then, the homogenates were centrifuged at 14,000 rpm for 30 min (4 °C), and the supernatant was used for evaluation of lipid peroxidation, glutathione, and antioxidant enzymes using spectrophotometric measurements and enzyme-linked immunosorbent assays (ELISA)..
# (§2) To assess the activity of antioxidant enzymes Superoxide dismutase (SOD) and Catalase (CAT), commercially available kits were used, following the manufacturer’s instructions, and as previously reported. Cayman assay kits (Cayman Chemicals Company, Ann Arbor, MI, USA) were used to assess antioxidant enzyme (superoxide dismutase (SOD) and catalase (CAT)) activities in experimental animals. Catalase assay: Twenty microliters of samples or standards and 30 μL of methanol was added to the assay buffer (100 μL) in 96-well plates. To this mixture, twenty microliter of hydrogen peroxide was added and incubated for 20 min at room temperature (RT) to initiate the reaction. Following incubation, 30 μL of potassium hydroxide was used to terminate the reaction, followed by subsequent addition of catalase purpald (30 μL) and catalase potassium periodate (10 μL). The plate was incubated for 5 min at room temperature in a shaker and the plate was read at 540 nm using a microplate reader. Catalase activity was expressed as nmol/min/mg protein. Superoxide dismutase assay: ten microliters of sample or standard was added in 96-well plates. Twenty microliters of xanthine oxidase were added to initiate the reaction. The reaction mixture was mixed for few seconds and incubated (covered) for 30 min at room temperature (RT). Absorbance was read at 450 nm using microplate reader. The activity of SOD was expressed as units/mg protein.
# [2] = design: method as in PMID 31647973; conditions: systemic pretreatment; cited from earlier work
# malondialdehyde (MDA) = experiment: Malondialdehyde (MDA) assay in brain parts of treated BTBR mice; type: in vivo; conditions: i.p., ST-2223 5 mg/kg, RAM 10 mg/kg, ARP 1 mg/kg, MEM 5 mg/kg, mean ± SEM; for MDA, Striatum: n = 3-6, BTBR vehicle 52.7 ± 3.4; for MDA, Hippocampus: n = 3-6, BTBR vehicle 53.8 ± 2.9; for MDA, Cerebellum: n = 3-6, BTBR vehicle 54.0 ± 6.4; for MDA, Prefrontal Cortex: n = 3-6, BTBR vehicle 58.3 ± 1.8
# Experimental: as §1
# This assay was performed to estimate the amount of lipid peroxidation in experimental animals using an MDA detection kit following the manufacturer’s instructions, as previously described in our laboratories. Briefly, 250 μL of sample or calibrator was incubated with thiobarbituric acid, followed by rigorous vortexing. After 1 h incubation at 60 °C, the mixture was centrifuged at 10,000× g for 2–3 min and the reaction mixture was transferred to a cuvette. Spectra were measured at 532 nm and the results are expressed as µM MDA/mg protein.
# glutathione (GSH) = experiment: Quantification of glutathione (GSH) in brain parts of treated BTBR mice; type: in vivo; conditions: i.p., ST-2223 5 mg/kg, RAM 10 mg/kg, ARP 1 mg/kg, MEM 5 mg/kg, mean ± SEM; for GSH, Striatum: n = 3-6, BTBR vehicle 583 ± 68.8; for GSH, Cerebellum: n = 3-6, BTBR vehicle 827 ± 93.3; for GSH, Prefrontal Cortex: n = 3-6, BTBR vehicle 835 ± 97.4; for GSH, Hippocampus: n = 3-6, BTBR vehicle 1096 ± 16.7
# Experimental: as §1
# Levels of GSH in tissue homogenates were carried out according to the manufacturer’s instructions of the commercially available Sigma’s glutathione assay kit (Sigma-Aldrich Chemie GmbH, Steinheim), and as previously described. In brief, samples were first deproteinized with 5% 5-sulfosalicylic acid solution, centrifuged to remove the precipitated protein, and then the supernatant was used to estimate GSH. Ten microliter samples or standards were incubated with 150 μL of working mixture (assay buffer + 5,5′-dithiobis (2-nitrobenzoic acid) + GSH reductase) in 96-well plates for 5 min. Diluted NADPH solution (50 µL) was added into each well and mixed thoroughly. Absorbance was measured at 412 nm with the kinetics for 5 min by using the microplate reader. Results are expressed as µM GSH/mg protein.
# catalase (CAT) = experiment: Catalase (CAT) activity in brain parts of treated BTBR mice; type: in vivo; conditions: i.p., ST-2223 5 mg/kg, RAM 10 mg/kg, ARP 1 mg/kg, MEM 5 mg/kg, mean ± SEM; for CAT, Prefrontal Cortex: n = 3-6, BTBR vehicle 80.1 ± 14.9; for CAT, Striatum: n = 3-6, BTBR vehicle 104.6 ± 2.28; for CAT, Hippocampus: n = 3-6, BTBR vehicle 111.4 ± 4.8; for CAT, Cerebellum: n = 3-6, BTBR vehicle 130. 7 ± 3.3
# Experimental: as §1, §2
# VPA mouse model of ASD = test system: VPA mouse model of ASD; design: method as in PMID 26074764; conditions: cited from earlier work
# human H3R = target: T1, human H3R (Homo sapiens, UniProt Q9Y5N1); experiment: [3H]Nα-methylhistamine binding assay, membranes of HEK cells; conditions: HEK cells stably expressing human H3R, n = 4; read-out: Ki (hH3R)
# T1 construct: expressed in transfected cells
# T1 sequence (Q9Y5N1 whole entry): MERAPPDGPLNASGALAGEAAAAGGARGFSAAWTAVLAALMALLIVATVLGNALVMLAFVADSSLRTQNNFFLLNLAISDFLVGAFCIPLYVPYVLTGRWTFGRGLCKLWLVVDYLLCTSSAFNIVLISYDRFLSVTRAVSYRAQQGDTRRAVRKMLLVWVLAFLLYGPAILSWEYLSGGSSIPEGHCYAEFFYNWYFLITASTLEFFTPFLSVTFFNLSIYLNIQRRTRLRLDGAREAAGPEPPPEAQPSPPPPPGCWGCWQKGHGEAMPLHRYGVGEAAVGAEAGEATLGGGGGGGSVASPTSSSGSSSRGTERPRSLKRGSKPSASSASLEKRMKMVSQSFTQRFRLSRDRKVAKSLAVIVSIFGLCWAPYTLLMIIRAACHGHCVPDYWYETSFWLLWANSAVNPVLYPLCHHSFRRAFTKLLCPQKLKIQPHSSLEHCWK
# Experimental: (§3) In accordance with previous experimental protocols, the binding affinity of ST-2223 for H3Rs was assessed by applying the [^3H]N^α-methylhistamine binding assay, performed with cell membrane preparation of HEK cells stably expressing the human H3R (n = 4). In addition, and as previously described, the binding affinity of ST-2223 for human dopamine hD1Rs and hD5Rs (HEK) against [^3H]SCH23390 and hD2SRs, hD3Rs (CHO) using [^3H]spiperone (n = 3) was assessed (n = 3).
# hD2SRs = target: T2, hD2SRs (Homo sapiens, UniProt P14416); experiment: [3H]spiperone displacement assay, CHO cell membranes; type: binding
# T2 construct: expressed in transfected cells
# T2 sequence (P14416 1-414 isoform P14416-2): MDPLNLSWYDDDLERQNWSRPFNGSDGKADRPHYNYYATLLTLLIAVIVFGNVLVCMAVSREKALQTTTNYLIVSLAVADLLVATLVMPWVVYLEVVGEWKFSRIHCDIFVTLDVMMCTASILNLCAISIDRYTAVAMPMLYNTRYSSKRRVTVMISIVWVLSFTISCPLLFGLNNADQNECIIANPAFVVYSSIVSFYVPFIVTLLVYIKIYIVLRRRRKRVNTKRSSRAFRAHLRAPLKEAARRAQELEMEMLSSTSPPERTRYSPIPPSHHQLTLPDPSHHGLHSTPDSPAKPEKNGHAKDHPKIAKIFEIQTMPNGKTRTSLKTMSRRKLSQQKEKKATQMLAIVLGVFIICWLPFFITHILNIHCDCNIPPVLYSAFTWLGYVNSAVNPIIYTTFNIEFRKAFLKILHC
# Experimental: as §3
# hD3Rs = target: T3, hD3Rs (Homo sapiens, UniProt P35462); experiment: as above; type: binding
# T3 construct: expressed in transfected cells
# T3 sequence (P35462 whole entry): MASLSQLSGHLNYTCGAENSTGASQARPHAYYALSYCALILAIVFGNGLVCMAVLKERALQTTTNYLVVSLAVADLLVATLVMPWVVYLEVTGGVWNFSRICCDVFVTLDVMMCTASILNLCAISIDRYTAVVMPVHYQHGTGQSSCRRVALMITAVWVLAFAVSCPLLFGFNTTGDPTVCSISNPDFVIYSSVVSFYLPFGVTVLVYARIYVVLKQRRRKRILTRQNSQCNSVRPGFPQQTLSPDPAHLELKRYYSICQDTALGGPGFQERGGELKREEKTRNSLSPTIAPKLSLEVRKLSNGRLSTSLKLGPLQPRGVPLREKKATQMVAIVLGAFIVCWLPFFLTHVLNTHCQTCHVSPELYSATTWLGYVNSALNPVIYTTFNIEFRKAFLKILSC
# Experimental: as §3
# EeAChE = EeAChE (Electrophorus electricus, UniProt O42275); experiment: Acetylcholinesterase inhibition, modified Ellman's method; type: biochemical, electric eel; conditions: 1 μM (1000 nM) of compound; preliminary data
# EeAChE, sequence (O42275 24-633): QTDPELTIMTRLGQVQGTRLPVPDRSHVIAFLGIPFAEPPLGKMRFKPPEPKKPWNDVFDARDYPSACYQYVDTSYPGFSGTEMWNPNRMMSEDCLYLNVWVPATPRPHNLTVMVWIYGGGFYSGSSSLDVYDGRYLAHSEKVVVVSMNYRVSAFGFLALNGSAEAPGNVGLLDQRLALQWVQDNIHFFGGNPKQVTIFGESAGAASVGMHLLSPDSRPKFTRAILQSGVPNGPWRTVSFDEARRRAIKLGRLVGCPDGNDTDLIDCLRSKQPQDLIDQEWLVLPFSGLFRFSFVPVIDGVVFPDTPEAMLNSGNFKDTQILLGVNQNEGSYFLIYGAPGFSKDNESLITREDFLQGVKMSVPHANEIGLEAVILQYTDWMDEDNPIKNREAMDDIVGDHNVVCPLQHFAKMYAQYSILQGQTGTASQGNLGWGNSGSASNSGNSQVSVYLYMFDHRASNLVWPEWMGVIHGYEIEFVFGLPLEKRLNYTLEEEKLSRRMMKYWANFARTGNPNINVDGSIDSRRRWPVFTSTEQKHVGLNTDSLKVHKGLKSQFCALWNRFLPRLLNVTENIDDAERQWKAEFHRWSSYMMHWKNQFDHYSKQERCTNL
# hD1Rs = target: T4, hD1Rs (Homo sapiens, UniProt P21728); experiment: [3H]SCH23390 displacement assay, HEK cell membranes; type: binding
# T4 construct: expressed in transfected cells
# T4 sequence (P21728 whole entry): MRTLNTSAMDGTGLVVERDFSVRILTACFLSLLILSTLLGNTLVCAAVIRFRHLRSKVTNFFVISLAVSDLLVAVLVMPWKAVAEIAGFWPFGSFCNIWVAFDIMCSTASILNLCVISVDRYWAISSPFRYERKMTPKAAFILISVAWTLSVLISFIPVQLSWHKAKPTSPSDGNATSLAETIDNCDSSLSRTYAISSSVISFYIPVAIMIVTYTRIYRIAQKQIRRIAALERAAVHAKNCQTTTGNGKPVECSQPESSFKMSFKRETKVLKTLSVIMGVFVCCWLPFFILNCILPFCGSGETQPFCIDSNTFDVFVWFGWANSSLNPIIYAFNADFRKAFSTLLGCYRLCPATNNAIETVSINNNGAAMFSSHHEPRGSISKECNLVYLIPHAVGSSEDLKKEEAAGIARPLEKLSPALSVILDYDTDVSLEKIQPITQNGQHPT
# Experimental: as §3
# hD5Rs = target: T5, hD5Rs (Homo sapiens, UniProt P21918); experiment: as above; type: binding
# T5 construct: expressed in transfected cells
# T5 sequence (P21918 whole entry): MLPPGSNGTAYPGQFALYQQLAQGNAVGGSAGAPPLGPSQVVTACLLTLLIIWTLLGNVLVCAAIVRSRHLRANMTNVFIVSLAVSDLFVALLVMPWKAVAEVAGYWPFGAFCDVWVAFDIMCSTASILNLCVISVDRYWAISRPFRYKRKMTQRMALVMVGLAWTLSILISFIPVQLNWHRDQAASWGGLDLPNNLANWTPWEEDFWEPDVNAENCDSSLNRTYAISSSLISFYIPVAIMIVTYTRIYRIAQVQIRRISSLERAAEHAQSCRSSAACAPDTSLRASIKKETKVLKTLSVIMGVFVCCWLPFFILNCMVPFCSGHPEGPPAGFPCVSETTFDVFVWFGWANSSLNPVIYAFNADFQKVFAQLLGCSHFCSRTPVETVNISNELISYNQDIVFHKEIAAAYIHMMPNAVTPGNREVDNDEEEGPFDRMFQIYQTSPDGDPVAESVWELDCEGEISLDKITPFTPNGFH
# Experimental: as §3
Compound,"SOD, Prefrontal Cortex [1] [units/mg protein]","SOD, Hippocampus [1] [units/mg protein]","SOD, Cerebellum [1] [units/mg protein]","SOD, Striatum [1] [units/mg protein]","MDA, Striatum (malondialdehyde (MDA)) [µM MDA/mg protein]","MDA, Hippocampus (malondialdehyde (MDA)) [µM MDA/mg protein]","MDA, Cerebellum (malondialdehyde (MDA)) [µM MDA/mg protein]","MDA, Prefrontal Cortex (malondialdehyde (MDA)) [µM MDA/mg protein]","GSH, Striatum (glutathione (GSH)) [µM GSH/mg protein]","GSH, Cerebellum (glutathione (GSH)) [µM GSH/mg protein]","GSH, Prefrontal Cortex (glutathione (GSH)) [µM GSH/mg protein]","GSH, Hippocampus (glutathione (GSH)) [µM GSH/mg protein]","CAT, Prefrontal Cortex (catalase (CAT)) [nmol/min/mg protein]","CAT, Striatum (catalase (CAT)) [nmol/min/mg protein]","CAT, Hippocampus (catalase (CAT)) [nmol/min/mg protein]","CAT, Cerebellum (catalase (CAT)) [nmol/min/mg protein]",other results
"O=C1CCc2ccc(OCCCCN3CCN(c4cccc(Cl)c4Cl)CC3)cc2N1 [ARP, aripiprazole]",54.0 ± 5.2,51.8 ± 2.0,56.4 ± 1.1,65.7 ± 7.7,41.2 ± 1.4,32.9 ± 4.1,36.8 ± 1.8,43.0 ± 2.5,1139 ± 74.6,1030 ± 36.2,935 ± 98.0,611.5 ± 62.6,96.2 ± 1.3,120.5 ± 10.1,118.3 ± 6.5,159.2 ± 5.1,enhanced frequency of self-grooming induced by neuromedin U [2]: attenuation
"CC12CC3CC(C)(C1)CC(N)(C3)C2 [MEM, memantine]",44.9 ± 2.2,41.4 ± 3.4,64.4 ± 3.1,66.47 ± 4.4,32.6 ± 4.1,32.8 ± 3.4,26.7 ± 3.6,40.0 ± 5.7,915.5 ± 97.3,877 ± 55.7,719.3 ± 50.0,–,94.1 ± 4.8,108.1 ± 3.4,114.3 ± 11.2,132.3 ± 4.5,"social deficits and repetitive behaviors (self-grooming, jumping) (VPA mouse model of ASD): rescued"
"COc1ccccc1N1CCN(CCCCNC(=O)c2ccc3cc(OCCCN4CCCCC4)ccc3c2)CC1 [ST-2223, N-(4-(4-(2-methoxyphenyl)piperazin-1-yl)butyl)-6-(3-(piperidin-1-yl)propoxy)-2-naphthamide]",43.2 ± 3.4,48.1 ± 4.2,64.3 ± 1.0,51.2 ± 7.7,34.5 ± 5.5,38.1 ± 3.1,35.2 ± 1.8,39.1 ± 3.2,1007 ± 93.1,1108 ± 41.1,1212 ± 302.6,916 ± 4.2,116.8 ± 5.3,119.1 ± 3.7,173.0 ± 1.9,120.6 ± 8.8,Ki (human H3R): 4.8 nM; Ki (hD2SRs): 19.8 nM; Ki (hD3Rs): 2 nM; hD2R/hD3R ratio of Ki values (hD3Rs; preference for hD3R): 10; inhibition at 1 µM (EeAChE): < 60%; Ki (hD1Rs): 564 nM; Ki (hD5Rs): 5060 nM
